The test system of test [1] is C57BL6/J mice. Description: Short-term memory impairment caused by amyloid peptide aggregates (icv Aβ oligomers), Y maze test. The settings on record: 4 mg/kg body weight per os once daily for four days; Y maze at day 4 post Aβ. The format is in vivo, mouse. As to the method:
(§1) In vivo experiments were carried out according to the National Institute of Health guidelines for the care and use of laboratory animals, approved by the French Ministry for Research and Technology. In the course of experiments, animals were housed at a standard temperature (22±1° C.) and in a light-controlled environment (lights on from 7 a.m. to 8 p.m.) with ad libitum access to food and water. Male C57BL/6 mice (C57BL/6J Rj, ref. SC-CJ-12w-M, Janvier, France) were housed 5 animals per cage. From one week before the start of the experiment until the end of the experiment, mice were housed individually. Animals were monitored twice-a-day by laboratory personnel (8 a.m. and 4 p.m.). In this project, young (14 weeks old) as well as aged (15-16 months old) mice were used. Experiments were carried out using 12 mice per experimental group.
Investigation of short-term working memory—Y maze test Y maze tests were carried out as previously described. Prior to testing, mice were brought to the experimental room for at least 30 min to acclimatize to experimental room conditions. The Y maze is made of opaque Plexiglas and each arm is 40 cm long, 16 cm high, 9 cm wide and positioned at equal angles. The apparatus was placed in the test room in such a way that it was brightened homogeneously with 12-15 lux in the arms as well as in the central zone. One mouse at a time was placed at the end of one arm and was allowed to move in the maze freely during a 5 min examination. Each arm entry was recorded with those entries being counted where the mouse completely placed its hind paws in the chosen arm. […] Results were calculated as the percentage of the ratio of actual detected alternations to possible alternations (defined as the number of total arm entries minus 2).
For the examination of memory impairment caused by Aβ oligomers, a mouse model developed and validated by SynAging was used. […] At day 4 post Aβ treatment, short-term memory was assessed with the Y maze test. […]
At day 4 post Aβ treatment, short-term memory was assessed with the Y maze test.

Test [2] deals with C57BL6/J mice. In words: Scopolamine-induced short-term memory impairment, Y maze test. It counts as in vivo, mouse. The settings on record: per os gavage; scopolamine 0.6 mg/kg i.p. 30 min prior to Y maze test. On the procedure: as §1
Investigation of short-term working memory—Y maze test Y maze tests were carried out as previously described. Prior to testing, mice were brought to the experimental room for at least 30 min to acclimatize to experimental room conditions. […] Each arm entry was recorded with those entries being counted where the mouse completely placed its hind paws in the chosen arm. […] Results were calculated as the percentage of the ratio of actual detected alternations to possible alternations (defined as the number of total arm entries minus 2). […]

Test [3] relates to EPO gene. Description: Gene expression in primary astrocytes by qRT-PCR. It counts as cell-based, rat. The note with it: 3 h, Example 2 at 330 nM and 1000 nM, PBT2 at 1000 nM. As to the method: (§2) Pure astrocyte culture was obtained from neonatal rats according to the protocol found in literature (Protocols for Neural Cell Culture 2001, pp 117-127. ch 9. Ruth Cole, Jean de Vellis. Preparation of Astrocyte, Oligodendrocyte, and Microglia Cultures from Primary Rat Cerebral Cultures). Astrocytes (1 million) were cultured in 100 mm TC-treated culture dishes (Orange Scientific, Belgium) in an incubator set at 37° C. and 5% CO2 with humid air. The R-enantiomeric derivative according to Example 2 was added to cells in two final concentrations: 330 nM and 1000 nM. Cells were also treated with 1000 nM PBT2 which bears the basic structure of the R-enantiomer according to Example 2 (8-hydroxy-quinoline ring) but contains conformational differences and was developed for the treatment of neurodegenerative disorders (Pub. No.: WO/2004/007461). Treatments were carried out with a 100 μM DMSO-based stock solution. Control cells were treated with the same amount of DMSO without the agent. Each treatment was conducted in three separate culture dishes. After treatment, cells were incubated at 37° C. for 3 h, then the medium was removed, cells were washed with PBS and total RNA was extracted from cells with the Accuzol™ Total RNA Extraction Solution (Bioneer, Daejeon, South Korea), according to the manufacturer's protocol. cDNA transcription was carried out with the High Capacity cDNA Reverse Transcription Kit (Life Technologies, Foster City, Calif., USA). During the test, the expression of four genes (PGK1, EPO, HMOX-1, VEGF) controlled by HIF1a was determined by qRT-PCR, with HPRT gene serving as a control. Relative expression of genes in treated samples was compared to untreated controls. The PCR was conducted with a LightCycler® Nano Instrument (Roche, Budapest, Hungary) in the presence of UPL (Universal Probe Library) probes (HPRT: 95, HMOX1: 4, EPO: 16, VEGF: 1, PGK1: 66), specific primers (HPRT1: 5′-gaccggttctgtcatgtcg-3′, HPRT2: 5′-[…]-3′; HMOX1-1: 5′-[…]-3′, HMOX1-2: 5′-ctgcagctcctcaaacagc-3′; EPO1: 5′-[…]-3′, EPO2: 5′-ccttctgcacagcccatt-3′; VEGF1: 5′-[…]-3′, VEGF2: 5′-[…]-3′; PGK1-1: 5′-[…]-3′, PGK1-2: 5′-gacttggctccattgtcca-3′) in 20 μl PCR reaction volume with 20 ng cDNA template and 10 μl Lightcycler DNA Probes Master (5×) Reagent Kit (Roche) according to the following protocol: activation of enzyme at 95° C. for 10 min, 50 cycles: denaturation at 95° C. for 15 sec, hybridization and polymerization, then detection at 60° C. for 30 sec.

Test [4] deals with HMOX-1 gene. Description: Gene expression in primary astrocytes by qRT-PCR. The format is cell-based, rat. The note with it: 3 h, Example 2 at 330 nM and 1000 nM, PBT2 at 1000 nM. On the procedure:
as §2

Test [5] relates to PGK1 gene. Description: Gene expression in primary astrocytes by qRT-PCR. It counts as cell-based, rat. The settings on record: in the cells. On the procedure: as §2
On the technique in general: Quantitative PCR measures a nucleic acid by following its amplification.

Test [6] relates to VEGF gene. In words: Gene expression in primary astrocytes by qRT-PCR. It counts as cell-based, rat. The settings on record: in the cells. As to the method:
as §2

Test [7] deals with BALB/c ear skin graft on C57BL/6 recipient mice. Description: Mouse skin transplantation, graft rejection scoring. The format is in vivo. The settings on record: 5 mg/kg once every day from transplantation; Example 2 orally, tacrolimus intraperitoneal; scoring at day 9 and day 10. As to the method:
Mouse skin transplantation is a standard method to assay host T cell responses to MHC-disparate donor antigens, which protocol was followed in the present example (Garrod and Cahalan; 2008). Briefly, WT C57BL/6 recipient mice (8-12 weeks old) and WT BALB/c donor mice (8-12 weeks old) were anesthetized with a combination of 10 mg/kg Xylazine and 100 mg/kg Ketamine administered by i.p. injection and 0.05 mg/kg Buprenorphine was administered by subcutaneous injection for analgesia. Ear skin (1.0 cm2) from the WT BALB/c donor mouse was grafted onto the flank of the WT C57BL/6 recipient. The implanted skin (graft) was covered with a sterile bandage, which was removed on day 7 post-transplant.
Recipients received either no treatment (controls), or treated with compound according to Example 2 orally at 5 mg/kg dose, once every day until the end of the experiment from the day of transplantation. […]
Different scores were used to define the quality of the grafts: intact grafts (Score 0), early stages of rejection (Score 1-4, corresponding to first clear signals of graft rejection: 1; >25% rejection rate: 2; >50% rejection rate: 3; >75% rejection rate: 4) up to complete graft rejection (Score 5). […] Average scores with SEM were calculated for each group.

Entries after “also recorded” stand apart in the source; their conditions may differ.

Regarding `Cc1ccnc(N[C@@H](c2ccc(C(F)(F)F)cc2)c2ccc3cccnc3c2O)n1` [Example 3, 7-[(S)-[(4-Methylpyrimidin-2-yl)amino][4-(trifluoromethyl)phenyl]methyl]quinolin-8-ol], in test [1], the “inhibition of short-term memory impairment caused by fibrillar aggregates of amyloid peptides” value is “did not inhibit”. Also, in test [2], the “inhibition of scopolamine-induced short-term memory impairment” value was “did not inhibit”. Besides, in test [3], the “activation of EPO gene expression” value is “capable to increase the gene activity; also recorded: highest inductive effect”. Also, the “activation of HMOX-1 gene expression” value in test [4] was “capable to increase the gene activity; also recorded: caused the induction of HMOX-1 in astrocytes”. The “increase of PGK-1 gene activity” value in test [5] is “capable to increase the gene activity”. For the same compound, the “increase of VEGF gene activity” value in test [6] is reported as “capable to increase the gene activity”.
Regarding `CN(C)Cc1ccc2c(Cl)cc(Cl)c(O)c2n1` [PBT2, reference compound], the “activation of EPO gene expression” value in test [3] is on record as “did not induced differences in gene activity”. Also, in test [4], the “activation of HMOX-1 gene expression” value is recorded as “did not induced differences in gene activity”.
As to `C=CC[C@@H]1/C=C(\C)C[C@H](C)C[C@H](OC)[C@H]2O[C@@](O)(C(=O)C(=O)N3CCCC[C@H]3C(=O)O[C@H](/C(C)=C/[C@@H]3CC[C@@H](O)[C@H](OC)C3)[C@H](C)[C@@H](O)CC1=O)[C@H](C)C[C@@H]2OC` [tacrolimus, reference compound], in test [7], the “skin graft rejection score (0-5)” value was “smaller score values both on day 9 and on day 10”.

(Values after patent publication US10287265B2, “Enantiomers of 8-hydroxyquinoline derivatives and the synthesis thereof” (AVIDIN Co. Ltd., priority 2015, dated 2019).)
